# Experimental data taken from US6656970B2, “Method and compositions for solubilization of pentacyclic triterpenes” (Dabur Research Foundation, priority 2000, dated 2003).
# Legend:
# human melanomas = conditions: cited from earlier work
# [1] = Solubility in individual solvents; type: physicochemical
# Experimental: (§1) The solubility of betulinic acid and its derivatives was determined in various individual solvents. Based on the solubility of betulinic acid in these particular vehicles, it was then attempted to enhance the solubility of betulinic acid by mixing different solvents according to the principles of co-solvency (Spiegel and Noseworthy, 1963, Yalkowsky and Roseman, 1981). Different solvent systems were evaluated to arrive at a suitable relevant stock composition. The stock composition would then be diluted with a final solvent or intravenous solution to yield a working formulation of 0.001-40 mg/ml.
# (§2) Several methods and compositions were evaluated for their ability to solubilize betulinic acid and its derivatives in water miscible, physiologically acceptable vehicles. The solvents that were tried included DMA, dimethylsulfoxide (DMSO), absolute ethanol, glycerin, polyethylene glycols (PEGs) and propylene glycol, in addition to the aqueous diluting fluids normal saline, and 2-25% dextrose in solution.
# [2] = Clarity / precipitation on dilution of the composition with aqueous diluting fluid; type: physicochemical
# Experimental: as §1, §2
# (§3) In the following examples one or more co-solvents with a solubilizers or a combination of (solubilizers) was added to keep the drug in solution after diluting with an aqueous intravenous diluting fluid.
# [3] = Amount of drug dissolved in solvent/co-solvent/solubilizer compositions; type: physicochemical
# Experimental: as §1, §2
# A concentrated solution of betulinic acid or its derivatives was prepared by dissolving 50-200 mg of betulinic acid or its derivatives in 1 ml of DMA. The above stock solution was diluted with PEG (polyethylene glycol, MW 300) in a ratio of 1:4 to a concentration of 10-40 mg/ml.
# as §3
# [4] = tested on: cultured human melanoma cells; conditions: cited from earlier work
# [5] = Example 6: DMA 50% v/v, Tween 80 50% w/v
smiles,measurement,setting,value
C=C(C)[C@@H]1CC[C@]2(C(=O)O)CC[C@]3(C)[C@H](CC[C@@H]4[C@@]5(C)CC[C@H](O)C(C)(C)[C@@H]5CC[C@]43C)[C@@H]12 [betulinic acid],tumor growth,human melanomas; athymic mice carrying human melanomas,completely inhibited
same,toxicity,"human melanomas; mouse, in vivo",without toxicity
same,solubility,"[1]; Absolute ethanol, organic solvent or mixture, Absolute ethanol, varies depending upon the derivative, read-out: SOLUBILITY",3000 to 10000 µg/mL
same,solubility,"[1]; Dimethylsulfoxide (DMSO), organic solvent or mixture, Dimethylsulfoxide (DMSO), read-out: SOLUBILITY",≤ 100000 µg/mL
same,solubility,[1]; Glycerin,insoluble
same,solubility,"[1]; N,N-dimethylacetamide (DMA), organic solvent or mixture, N,N Dimethylacetamide (DMA), read-out: SOLUBILITY",≤ 250000 µg/mL
same,solubility,"[1]; Polyethylene glycols (MW 200, 300, 400), organic solvent or mixture, Polyethylene glycols (MW 200, 300, 400), read-out: SOLUBILITY",< 5000 µg/mL
same,solubility,"[1]; Propylene glycol, organic solvent or mixture, Propylene glycol, read-out: SOLUBILITY",< 5000 µg/mL
same,solubility,[1]; Water,insoluble
same,solubility,[1]; most of the aqueous solvents,insoluble
same,behaviour on dilution with the aqueous diluting fluid,"[2]; Example 3: 50 mg drug, DMA 20% v/v, PEG 300 80% v/v, even at concentrations as low as 0.001-0.1 mg/ml",immediate precipitation
same,behaviour on dilution with the aqueous diluting fluid,"[2]; Example 3: 200 mg drug, DMA 20% v/v, PEG 300 80% v/v",immediately precipitated out
same,behaviour on dilution with aqueous diluting fluid,"[2]; Example 4: 50 mg drug, DMA 50% v/v, PEG 300 50% v/v, diluted with 2-25% dextrose or normal saline",gave a viscous solution which gels over time although there are no signs of any precipitation of drug
same,behaviour on dilution with aqueous diluting fluid,[2]; [5],immediately precipitated out
same,time the drug solution remained clear on dilution,"[2]; Example 7: Absolute ethanol 20-40% v/v, Tween 80 60-80% w/v, diluted with aqueous diluting fluid to 0.3-1.4 mg/ml",≤ 3 h
same,behaviour on dilution with aqueous diluting fluid,"[2]; Example 8: Absolute ethanol 65% v/v, Tween 80 5% w/v, PEG 300 30% v/v, diluted to 0.08-0.4 mg/ml",remained clear
same,behaviour on dilution with aqueous diluting fluid,"[2]; Example 9: Absolute ethanol 35% v/v, Tween 80 15% w/v, PEG 300 50% v/v, diluted to 0.08 to 0.4 mg/ml",remained clear
same,behaviour on dilution with aqueous diluting fluid,"[2]; Example 9 composition, diluted outside the range 0.08 to 0.4 mg/ml",immediate precipitation
same,time the composition remained clear without any precipitation on dilution,"[2]; Example 16: DMA 20-50% v/v, PEG 300 20-40% v/v, Tween 80 5-30% w/v, diluted with aqueous diluting fluid to 0.1-10 mg/ml",more than 5 days
same,behaviour on dilution with an aqueous diluting fluid,"[2]; Examples 10 and 11 compositions, at a lower concentration of 0.012-2 mg/ml",remains clear
same,behaviour on dilution with aqueous diluting fluid,"[2]; Examples 12 and 13 compositions containing MYRJ 52, diluted to 0.1-1.0 mg/ml",precipitated out in a few hours
same,behaviour on dilution with the aqueous diluting fluid,"[2]; Examples 14 and 15 compositions, only at lower dilutions (0.001-1 mg/ml)",remained soluble
same,drug concentration the composition could dissolve,[3]; [5],≤ 20000 µg/mL
same,drug concentration the composition could dissolve,"[3]; Example 7: Absolute ethanol 20-40% v/v, Tween 80 60-80% w/v",≤ 20000 µg/mL
same,drug concentration the composition could dissolve,"[3]; Example 8: Absolute ethanol 65% v/v, Tween 80 5% w/v, PEG 300 30% v/v",up to 6 mg/ml
same,drug concentration the composition could dissolve,"[3]; Example 9: Absolute ethanol 35% v/v, Tween 80 15% w/v, PEG 300 50% v/v",up to 4 mg/ml
same,drug concentration that could be dissolved in the compositions,"[3]; Example 16: DMA 20-50% v/v, PEG 300 20-40% v/v, Tween 80 5-30% w/v",Up to 22 mg/ml
same,drug concentration the compositions could dissolve,"[3]; Examples 12 and 13: DMA 20% v/v, MYRJ 52 20-30% w/v, Tween 20-50% w/v, with or without PEG 300 40% v/v",≤ 20000 µg/mL
same,drug concentration the compositions could dissolve,"[3]; Examples 14 and 15: DMA 20% v/v, Tween 80 20% w/v, PEG 300 55-57% v/v, Poloxamer 407 3% w/v or Lecithin 5% w/v",2000 to 15000 µg/mL
same,solubility,"[3]; organic solvent or mixture, Examples 10 and 11: DMA 10-20% v/v, Propylene glycol 10-20% v/v, Absolute ethanol 30-35% v/v, Tween 80 35-40% w/v, read-out: concentration range soluble in the system",2000 to 15000 µg/mL
same,cytotoxicity,[4],melanoma-specific cytotoxic agent
